Measurements taken from patent publication US20260242359A1, “IRHOM2 INHIBITORS AND USES THEREOF” (NEW YORK SOCIETY FOR THE RELIEF OF THE RUPTURED AND …, priority 2023, published 2026).

Experiments:
Format in all cases: cell-based
[1] = system: PMA-stimulated KL2 release from HEK-293 cells (iRhom2/ADAM17 selective substrate); assay: Secondary screen (Example 3a): PMA-stimulated KL2 release from HEK-293 cells, AP readout; details: Homo sapiens, HEK293, HEK-293 cells expressing KL2-AP, PMA 500 ng/mL, 2 h, read-out: Secondary Screen XC50 KL2
Description: (§1) Two separate screens to identify novel small molecule inhibitors of iRhom2/ADAM17 activity were developed. […] Therefore, the primary screen for small molecule inhibitors of iRhom2/ADAM17 was a screen for inhibitors that blocked the release of TNFα from LPS-stimulated THP-1 human myeloid cells, a process that depends on iRhom2 and ADAM17. […]
(§2) First, expression plasmids for alkaline phosphatase (AP)-fused KL2 and TGFα were designed and generated through gene synthesis followed by subcloning into the pcDNA3.1(+)/Hygro expression vector. […] During cell culturing, cell density and viability were monitored to ensure optimal conditions for the transfections. After PMA stimulation, AP-coupled KL2 or TGFα were detected by measurement of AP activity in the supernatant. […]
(§3) After electroporation, cells were further cultured in presence of selection antibiotics, hygromycin B, to generate stably transfected polyclonal cell pools. […] Final assay conditions were determined for the selected pools. […]
60 μL of cells (40,000/well) were added to a sterile 384-well plate. […] The reaction was stopped by addition of 20 μL of NaOH (1 M final conc.) and the absorbance of pNP was measured at 405 nm.

[2] = system: TNFα release from LPS-stimulated THP-1 cells (iRhom2/ADAM17-dependent); assay: Primary screen (Example 1a): LPS-stimulated TNFα release from THP-1 cells, HTRF; details: Homo sapiens, LPS 100 ng/mL, 3 h, normalized against 50 μM Batimastat, read-out: Primary Screen XC50 TNFα
Experimental: as §1
THP-1 cells were plated in 384 or 1,536 wells and transferred on the ultra-high throughput screening (uHTS) platform Mark III, and TNFα shedding was initiated by LPS stimulation of THP-1 cells. The extent of released TNFα was detected with the corresponding HTRF antibodies labeled with europium cryptate (donor) and d2 (acceptor). […]
7.5 nL compound and controls in DMSO [10 μM in assay; 0.25% DMSO in 3 μL Assay] were dissolved in 2 μL cell suspension [2.4E6/mL; 4800 cells/well; culture w/o PenStrep], pre-incubated at 37° C., 5% CO2, for 15 min with 1 μL LPS [100 ng/mL in 3 μL assay]. […] After an incubation at room temperature for 2 h or longer, the HTRF readout was performed. […]

[3] = system: PMA-stimulated TGFα release from HEK-293 cells (substrate of iRhom1/ADAM17 and iRhom2/ADAM17); assay: Counter screen (Example 4a): PMA-stimulated TGFα release from HEK-293 cells, AP readout; details: Homo sapiens, HEK293, HEK-293 cells expressing TGFα-AP, PMA 100 ng/mL, 2 h, read-out: Counter Screen XC50 TGFα
Experimental: A tertiary counterscreen was also performed to monitor the release of TGFα, which is a substrate of iRhom1/ADAM17 and iRhom2/ADAM17, so its release should not be blocked by an iRhom2-selective inhibitor (Maretzky T et al. (July 2013), “iRhom2 controls the substrate selectivity of stimulated ADAM117-dependent ectodomain shedding”, PNAS 110(28): 11433-11438; and Li X et al. (May 2015), “iRhoms 1 and 2 are essential upstream regulators of ADAM17-dependent EGFR signaling”, PNAS 112(19): 6080-6085).
as §2, §3
60 μL of cells (20,000/well) were added to a sterile 384-well plate. […] The reaction was stopped by addition of 20 μL of NaOH (1 M final conc.) and the absorbance of pNP was measured at 405 nm.

## CCC(=O)NCCc1c(/C=C2/C(=O)NC(=O)N(c3ccc(C)cc3C)C2=O)[nH]c2ccccc12 [Compound 1]
[1]
  IC50: > 128 µM
[2]
  IC50: < 802 nM
[3]
  IC50: 12.6 µM

## CCOC(=O)c1ccc(Nc2nc3nonc3n3nnnc23)cc1 [Compound 2]
[1]
  IC50: > 128 µM
[2]
  IC50: < 802 nM
[3]
  IC50: 9.91 µM
